The values that follow come from US8829007B2 (priority 2009, dated 2014).

Test [1] concerns A/PR/8/34 influenza virus. Description: microbe, parasite or virus in culture. The class given is cell-based.
For test [2], the system named is influenza A virus (A/PR/8/34). Kind of test: microbe, parasite or virus in culture. The class given is cell-based.
Setting [3] is: Influenza A virus, PR/8, MDCK, MDCK cells infected with A/PR/8/34, replication of influenza virus (viral RNA, bDNA), class symbols, read-out: EC50 (mean all).
Setting [4] is: Influenza A virus, PR/8, MDCK, MDCK cells infected with A/PR/8/34, survival of infected cells, class symbols, read-out: IC50 (mean all).
Where [5] appears, read: MDCK cells infected with A/PR/8/34, replication of influenza virus (viral RNA, bDNA), class symbols, read-out: EC50 (mean all).

Read-outs that look alike come from different tables or passages of the source.

As usually defined, the EC50 is the concentration giving half of the maximal effect. Regarding `CS(=O)(=O)N[C@@H]1CCCC[C@H]1CNc1nc(-c2c[nH]c3ncc(Cl)cc23)ncc1F` (relative stereo) [Compound 557, N-(trans-2-((2-(5-chloro-1H-pyrrolo[2,3-b]pyridin-3-yl)-5-fluoropyrimidin-4-ylamino)methyl)cyclohexyl)methanesulfonamide], the EC50 in test [1] (setting [3]) was < 5 µM.

Regarding `CC[C@]1(C(=O)O)CCCC[C@H]1Nc1nc(-c2c[nH]c3ncc(Cl)cc23)ncc1F` (relative stereo) [Compound 585, cis-2-(2-(5-chloro-1H-pyrrolo[2,3-b]pyridin-3-yl)-5-fluoropyrimidin-4-ylamino)-1-ethylcyclohexanecarboxylic acid], the EC50 in test [1] ([…], replication of influenza virus (viral RNA, bDNA), class symbols, read-out: EC50 (mean all)) is < 5 µM. Turning to `C[C@]1(C(=O)O)CCC[C@H](Nc2nc(-c3c[nH]c4ncc(Cl)cc34)ncc2F)[C@H]1O` (single isomer, unassigned) [Compound 928], in test [1] (Influenza A virus, PR/8, mean all, replication of A/PR/8/34 influenza virus (bDNA assay), read-out: EC50), the concentration giving a half-maximal response (EC50) is < 5 µM. Take `C[C@@]1(C(=O)O)CCCC[C@H]1Nc1nc(-c2c[nH]c3ncc(Cl)cc23)ncc1F` (stereo in doubt) [Compound 582, Trans-2-(2-(5-chloro-1H-pyrrolo[2,3-b]pyridin-3-yl)-5-fluoropyrimidin-4-ylamino)-1-methylcyclohexanecarboxylic acid]: in test [1] (setting [3]), the concentration for a half-maximal effect (EC50) was < 5 µM. Take `Fc1cnc(-c2c[nH]c3ncc(Cl)cc23)nc1N[C@H]1CCCN(CC(F)F)C1` [Compound 1, (S)-2-(5-chloro-1H-pyrrolo[2,3-b]pyridin-3-yl)-N-(1-(2,2-difluoroethyl)piperidin-3-yl)-5-fluoropyrimidin-4-amine]: the EC50 in test [1] (Influenza A virus, PR/8, MDCK, MDCK cells infected with A/PR/8/34, bDNA viral RNA, read-out: EC50 (mean all)) is < 5 µM. A word on the IC50: it is the point on the concentration scale where inhibition reaches its midpoint. On to `CCNC(=O)[C@H]1CCCC[C@@H]1Nc1nc(-c2c[nH]c3ncc(Cl)cc23)ncc1F` [Compound 521, (1S,2S)-2-(2-(5-chloro-1H-pyrrolo[2,3-b]pyridin-3-yl)-5-fluoropyrimidin-4-ylamino)-N-ethylcyclohexanecarboxamide], for which the IC50 in test [2] (setting [4]) lay in the range of 5 to 20 µM. Same read-out and setting: for `CN(C)[C@H]1CCCC[C@@H]1Nc1nc(-c2c[nH]c3ncc(Cl)cc23)ncc1F` [Compound 523, (1S,2S)—N1-(2-(5-chloro-1H-pyrrolo[2,3-b]pyridin-3-yl)-5-fluoropyrimidin-4-yl)-N2,N2-dimethylcyclohexane-1,2-diamine] the value was > 20 µM.

`CC(C)(O)CN1CCC[C@H](Nc2nc(-c3c[nH]c4ncc(Cl)cc34)ncc2F)C1` [Compound 546]: in test [1] (setting [3]), the EC50 was < 5 µM. Consider `CC(=O)N[C@@H]1CCC[C@H](Nc2nc(-c3c[nH]c4ncc(Cl)cc34)ncc2F)C1` [Compound 547, N-[(1R,3S)-3-[[2-(5-chloro-1H-pyrrolo[2,3-b]pyridin-3-yl)-5-fluoro-pyrimidin-4-yl]amino]cyclohexyl]acetamide], for which the EC50 in test [1] (setting [5]) was < 5 µM. For the compound `COC(=O)N[C@H]1CCC[C@@H](Nc2nc(-c3c[nH]c4ncc(Cl)cc34)ncc2F)C1` [Compound 548, Methyl N-[(1S,3R)-3-[[2-(5-chloro-1H-pyrrolo[2,3-b]pyridin-3-yl)-5-fluoro-pyrimidin-4-yl]amino]cyclohexyl]carbamate], the EC50 in test [1] (setting [3]) was < 5 µM.

As for `CN(C)C(=O)N[C@H]1CCC[C@@H](Nc2nc(-c3c[nH]c4ncc(Cl)cc34)ncc2F)C1` [Compound 549, 3-[(1S,3R)-3-[[2-(5-chloro-1H-pyrrolo[2,3-b]pyridin-3-yl)-5-fluoro-pyrimidin-4-yl]amino]cyclohexyl]-1,1-dimethyl-urea], in test [1] (setting [3]), the EC50 was < 5 µM. On to `COCC(O)CN1CC[C@H](C)[C@H](Nc2nc(-c3c[nH]c4ncc(Cl)cc34)ncc2F)C1` (stereo partly drawn) [Compound 550], for which the concentration for a half-maximal effect (EC50) in test [1] (setting [3]) is < 5 µM.

On to `CC(C)OCC(O)CN1CCCC(Nc2nc(-c3c[nH]c4ncc(Cl)cc34)ncc2F)C1` [Compound 551, 1-((S)-3-((2-(5-chloro-1H-pyrrolo[2,3-b]pyridin-3-yl)-5-fluoropyrimidin-4-ylamino)piperidin-1-yl)-3-isopropoxypropan-2-ol], for which the EC50 in test [1] (setting [3]) was < 5 µM.

Take `COC1CCC[C@H](Nc2nc(-c3c[nH]c4ncc(Cl)cc34)ncc2F)C1` (stereo partly drawn) [Compound 552, 2-(5-chloro-1H-pyrrolo[2,3-b]pyridin-3-yl)-5-fluoro-N-((1S)-3-methoxycyclohexyl)pyrimidin-4-amine]: the EC50 in test [1] (setting [3]) is < 5 µM. Same read-out and setting: for `CC(C(=O)O)N1CCCC(Nc2nc(-c3c[nH]c4ncc(Cl)cc34)ncc2F)C1` [Compound 573, 2-((S)-3-((2-(5-chloro-1H-pyrrolo[2,3-b]pyridin-3-yl)-5-fluoropyrimidin-4-ylamino)piperidin-1-yl)propanoic acid] the value was < 5 µM.

As to `COCCOC(=O)[C@H]1CCCC[C@@H]1Nc1nc(-c2c[nH]c3ncc(Cl)cc23)ncc1F` [Compound 574, (1S,2S)-2-methoxyethyl 2-(2-(5-chloro-1H-pyrrolo[2,3-b]pyridin-3-yl)-5-fluoropyrimidin-4-ylamino)cyclohexanecarboxylate], the concentration giving a half-maximal response (EC50) in test [1] (setting [3]) was < 5 µM. Still for that read-out and setting: the result for `COC(=O)[C@H]1CCCC[C@@H]1Nc1nc(-c2c[nH]c3ncc(Cl)cc23)ncc1F` [Compound 575, (1S,2S)-methyl 2-(2-(5-chloro-1H-pyrrolo[2,3-b]pyridin-3-yl)-5-fluoropyrimidin-4-ylamino)cyclohexanecarboxylate] reads < 5 µM. In the case of `CC(=O)N[C@@H]1CCC[C@H](Nc2nc(-c3c[nH]c4ncc(Cl)cc34)ncc2F)C1` [Compound 576, N-[(1R,3S)-3-[[2-(5-chloro-1H-pyrrolo[2,3-b]pyridin-3-yl)-5-fluoro-pyrimidin-4-yl]amino]cyclohexyl]acetamide], the EC50 in test [1] (setting [3]) is < 5 µM.

`O=C(O)CN1CCC[C@H](Nc2nc(-c3c[nH]c4ncc(Cl)cc34)ncc2F)C1` [Compound 577]: the EC50 in test [1] (setting [3]) is < 5 µM. Consider `O=C(O)[C@H]1CCCC[C@H]1Nc1nc(-c2c[nH]c3ncc(Cl)cc23)ncc1F` [Compound 579, (1S,2R)-2-(2-(5-chloro-1H-pyrrolo[2,3-b]pyridin-3-yl)-5-fluoropyrimidin-4-ylamino)cyclohexanecarboxylic acid], for which, in test [1] (setting [3]), the EC50 is < 5 µM.

With `CC1(O)CCCCCC1Nc1nc(-c2c[nH]c3ncc(Cl)cc23)ncc1F` (stereo not drawn) [Compound 581], the EC50 in test [1] (setting [5]) is < 5 µM.

Consider `CC(C(N)=O)N1CCCC(Nc2nc(-c3c[nH]c4ncc(Cl)cc34)ncc2F)C1` [Compound 583, 2-((S)-3-((2-(5-chloro-1H-pyrrolo[2,3-b]pyridin-3-yl)-5-fluoropyrimidin-4-ylamino)piperidin-1-yl)propanamide], for which the EC50 in test [1] (setting [3]) was < 5 µM. On the same count and under the same terms, for `COCCC(=O)N1CCC(F)(F)CC1CNc1nc(-c2c[nH]c3ncc(Cl)cc23)ncc1F` (stereo not drawn) [Compound 584, 1-(2-((2-(5-chloro-1H-pyrrolo[2,3-b]pyridin-3-yl)-5-fluoropyrimidin-4-ylamino)methyl)-4,4-difluoropiperidin-1-yl)-3-methoxypropan-1-one] the value was < 5 µM. Regarding `COP(=O)(OC)[C@@]1(O)CCC[C@H](Nc2nc(-c3c[nH]c4ncc(Cl)cc34)ncc2F)C1` [Compound 741], the IC50 in test [2] (read-out: IC50) was < 5 µM. Still for that read-out and setting: the result for `COP(=O)(OC)[C@]1(O)CCC[C@H](Nc2nc(-c3c[nH]c4ncc(Cl)cc34)ncc2F)C1` [Compound 742] reads < 5 µM. Regarding “(R)-ethyl 3-((2-(5-chloro-1H-pyrrolo[2,3-b]pyridin-3-yl)pyrimidin-4-ylamino)methyl)piperidine-1-carboxylate [Compound 495]”, the IC50 in test [2] (read-out: IC50 (mean all)) lay in the range of 5 to 20 µM. For the compound “(S)-6-(2-(5-chloro-1H-pyrrolo[2,3-b]pyridin-3-yl)-5-fluoropyrimidin-4-ylamino)-4-(4-methoxybenzyl)-1,4-oxazepan-2-one [Compound 505]”, the IC50 in test [2] (read-out: IC50 (mean all)) lay in the range of 5 to 20 µM.
